One assay addresses μ-receptor (Homo sapiens (Human), UniProt P35372). Briefly: Receptor binding, competitive displacement of [3H]DAMGO. As to conditions: 0.25 nM [3H]DAMGO, CHO cell membrane protein, 60 min at 25° C. In outline: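 Membranes from CHO cells stably expressing cloned human μ-opioid receptor incubated 60 min at 25 °C with 12 compound concentrations and 0.25 nM [3H]DAMGO in 50 mM Tris-HCl pH 7.5; nonspecific binding with 10 μM naloxone. Filtration and scintillation counting; Ki from IC50 by Cheng-Prusoff.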
On the technique in general: Loss of bound radioactivity is the signal in a displacement assay; it reports binding, not function.

The target of a further assay is human μ opioid receptor (Homo sapiens (Human), UniProt P35372). Put plainly: Functional activity ([35S]GTPγS binding). The assay is classed as biochemical. As to conditions: [35S]GTPγS 0.080 nM, CHO cell membranes, 60 min at 30° C., filtration. The essentials:
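Membranes from stably transfected CHO cells (7.5 μg) incubated with 12 test-compound concentrations and 0.080 nM [35S]GTPγS in 50 mM Tris-HCl pH 7.4, 3 mM MgCl2, 0.2 mM EGTA, 3 μM GDP, 100 mM NaCl, 60 min at 30° C. Nonspecific binding defined with 10 μM GTPγS; bound label collected by filtration and scintillation counting.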
(Binding of GTPγS marks nucleotide exchange on a G protein.)

Structures can show the parent of a compound that is named as a salt.

Here are results for 28 compounds from patent US10604489B2, “Compounds for the treatment of pain” (priority 2018, dated 2020).

The term Ki denotes a dissociation constant, usually derived from enzyme kinetics or from competition with a known ligand. A lower Ki goes with tighter binding. In general, EC50 refers to the concentration giving half of the maximal effect. Low readings indicate an effect from little substance, high ones a need for much substance.

`COC1(c2ccnc(C(N)=O)c2)C2CCCC1CN(C1CC3(COC3)C1)C2` [Compound 81, 4-((1R,5S,9r)-9-methoxy-3-(2-oxaspiro[3.3]heptan-6-yl)-3-azabicyclo[3.3.1]nonan-9-yl)picolinamide (S)-2-hydroxysuccinate] yielded a Ki on μ-receptor of under 1 nM. At human μ opioid receptor, the EC50 is 10 to 75 nM.

`COC1(c2ccnc(C(N)=O)c2)C2CCCC1CN(C1CC(F)(F)C1)C2` [Compound 82, 4-((1R,5S,9r)-3-(3,3-difluorocyclobutyl)-9-methoxy-3-azabicyclo[3.3.1]nonan-9-yl)picolinamide hydrochloride] gave an inhibition constant Ki at μ-receptor of 1 to 5 nM. This compound also showed a 50% effective concentration (EC50) on human μ opioid receptor of 10 to 75 nM.

In the case of `COCCN1CC2CCCC(C1)C2(OC)c1ccnc(C(N)=O)c1` [Compound 83, 4-((1R,5S,9r)-9-methoxy-3-(2-methoxyethyl)-3-azabicyclo[3.3.1]nonan-9-yl)picolinamide hydrochloride], on μ-receptor, the Ki is 1 to 5 nM. At human μ opioid receptor, this compound gave a concentration giving a half-maximal response (EC50) of 10 to 75 nM.

`COC1(c2ccnc(C(N)=O)c2)C2CCCC1CN(CCN1CCNC1=O)C2` [Compound 85, 4-((1R,5S,9r)-9-methoxy-3-(2-(2-oxoimidazolidin-1-yl)ethyl)-3-azabicyclo[3.3.1]nonan-9-yl)picolinamide hydrochloride] came in with a Ki at μ-receptor of 1 to 5 nM. This compound had a concentration giving a half-maximal response (EC50) on human μ opioid receptor of 10 to 75 nM.

Regarding `COC1(c2ccnc(C(N)=O)c2)C2CCCC1CN(CCC1CC1)C2` [Compound 86, 4-((1R,5S,9r)-3-(2-cyclopropylethyl)-9-methoxy-3-azabicyclo[3.3.1]nonan-9-yl)picolinamide hydrochloride], on μ-receptor, the inhibition constant Ki lay in the range of 1 to 5 nM. Further, at human μ opioid receptor, the half-maximal effective concentration (EC50) is 10 to 75 nM.

Compound `COC1(c2ccnc(C(N)=O)c2)C2CCCC1CN(C1CC(c3ccccc3)C1)C2` [Compound 87, 4-((1R,5S,9R)-9-methoxy-3-((1r,3R)-3-phenylcyclobutyl)-3-azabicyclo[3.3.1]nonan-9-yl)picolinamide hydrochloride] registered an inhibitory constant (Ki) at μ-receptor of under 1 nM. On human μ opioid receptor, this compound yielded an EC50 of under 10 nM.

With `COC1(c2ccnc(C(N)=O)c2)C2CCCC1CN(CCN1CCCS1(=O)=O)C2` [Compound 88, 4-((1R,5S,9r)-3-(2-(1,1-dioxidoisothiazolidin-2-yl)ethyl)-9-methoxy-3-azabicyclo[3.3.1]nonan-9-yl)picolinamide hydrochloride], the Ki on μ-receptor is 1 to 5 nM. For the same compound, the 50% effective concentration (EC50) on human μ opioid receptor is over 75 nM.

`COC1(c2ccnc(C(N)=O)c2)C2CCCC1CN(C1CC(c3ccccc3)C1)C2` [Compound 89, 4-((1R,5S,9R)-9-methoxy-3-((1s,3S)-3-phenylcyclobutyl)-3-azabicyclo[3.3.1]nonan-9-yl)picolinamide hydrochloride] showed an inhibition constant Ki at μ-receptor of under 1 nM. Moreover, the EC50 at human μ opioid receptor is under 10 nM.

For the compound `COC1(c2ccnc(C(N)=O)c2)C2CCCC1CN(C1CCC1)C2` [Compound 90, 4-((1R,5S,9r)-3-cyclobutyl-9-methoxy-3-azabicyclo[3.3.1]nonan-9-yl)picolinamide hydrochloride], the Ki at μ-receptor lay in the range of 1 to 5 nM. The 50% effective concentration (EC50) on human μ opioid receptor lay within 10 to 75 nM.

Take `COC1(c2ccnc(C(N)=O)c2)C2CCCC1CN(CC(C)C)C2` [Compound 92, 4-((1R,5S,9r)-3-isobutyl-9-methoxy-3-azabicyclo[3.3.1]nonan-9-yl)picolinamide hydrochloride]: on μ-receptor, the inhibition constant (Ki) was over 5 nM. Further, the 50% effective concentration (EC50) at human μ opioid receptor was over 75 nM.

Compound `COC1(c2ccnc(C(N)=O)c2)C2CCCC1CN([C@@H]1C[C@H]3C[C@H]3C1)C2` (stereo partly drawn) [Compound 93, 4-((1R,5S,9R)-3-((1R,3r,5S)-bicyclo[3.1.0]hexan-3-yl)-9-methoxy-3-azabicyclo[3.3.1]nonan-9-yl)picolinamide hydrochloride] registered a Ki at μ-receptor of 1 to 5 nM. For the same compound, on human μ opioid receptor, the EC50 is 10 to 75 nM.

`COC1(c2ccnc(C(N)=O)c2)C2CCCC1CN([C@H]1C[C@H]3C[C@H]3C1)C2` (stereo partly drawn) [Compound 94, 4-((1R,5S,9R)-3-((1R,3s,5S)-bicyclo[3.1.0]hexan-3-yl)-9-methoxy-3-azabicyclo[3.3.1]nonan-9-yl)picolinamide hydrochloride]: the Ki at μ-receptor is under 1 nM. The compound further had a half-maximal effective concentration (EC50) on human μ opioid receptor of 10 to 75 nM.

For `COC1(c2ccc(C(N)=O)s2)C2CCCC1CN(CCN1CCNC1=O)C2` [Compound 95, 5-((1R,5S,9r)-9-methoxy-3-(2-(2-oxoimidazolidin-1-yl)ethyl)-3-azabicyclo[3.3.1]nonan-9-yl)thiophene-2-carboxamide (S)-2-hydroxysuccinate], the Ki at μ-receptor fell in the range of 1 to 5 nM. The EC50 on human μ opioid receptor was over 75 nM.

In turn, `COC1(c2ccc(C(N)=O)s2)C2CCCC1CN(CCN1CCCS1(=O)=O)C2` [Compound 97, 5-((1R,5S,9r)-3-(2-(1,1-dioxidoisothiazolidin-2-yl)ethyl)-9-methoxy-3-azabicyclo[3.3.1]nonan-9-yl)thiophene-2-carboxamide (S)-2-hydroxysuccinate] came in with an inhibition constant Ki on μ-receptor of under 1 nM. The compound further showed an EC50 on human μ opioid receptor of 10 to 75 nM.

Take `COC1(c2ccc(C(N)=O)s2)C2CCCC1CN(CCN1CCOC1=O)C2` [Compound 98, 5-((1R,5S,9r)-9-methoxy-3-(2-(2-oxooxazolidin-3-yl)ethyl)-3-azabicyclo[3.3.1]nonan-9-yl)thiophene-2-carboxamide (S)-2-hydroxysuccinate]: the Ki at μ-receptor was over 5 nM. Also, the EC50 on human μ opioid receptor fell in the range of 10 to 75 nM.

As to `COC1(c2ccnc(C(N)=O)c2)C2CCCC1CN(Cc1ncc[nH]1)C2` [Compound 99, 4-((1R,5S,9r)-3-((1H-imidazol-2-yl)methyl)-9-methoxy-3-azabicyclo[3.3.1]nonan-9-yl)picolinamide hydrochloride], the Ki at μ-receptor lay within 1 to 5 nM. This compound yielded a concentration giving a half-maximal response (EC50) on human μ opioid receptor of 10 to 75 nM.

On to `COC1(c2ccnc(C(N)=O)c2)C2CCCC1CN(Cc1ccn[nH]1)C2` [Compound 100, 4-((1R,5S,9r)-3-((1H-pyrazol-5-yl)methyl)-9-methoxy-3-azabicyclo[3.3.1]nonan-9-yl)picolinamide hydrochloride], for which the Ki at μ-receptor is under 1 nM. The compound further yielded a half-maximal effective concentration (EC50) at human μ opioid receptor of 10 to 75 nM.

For `COC1(c2ccc(C(N)=O)s2)C2CCCC1CN(C1CCCCC1)C2` [Compound 101, 5-((1R,5S,9r)-3-cyclohexyl-9-methoxy-3-azabicyclo[3.3.1]nonan-9-yl)thiophene-2-carboxamide hydrochloride], the Ki at μ-receptor lay within 1 to 5 nM. This compound registered a concentration giving a half-maximal response (EC50) on human μ opioid receptor of over 75 nM.

`COC1(c2ccnc(C(N)=O)c2)C2CCCC1CN(C[C@H]1C[C@@H]3C[C@@H]3C1)C2` (stereo partly drawn) [Compound 102, 4-((1R,5S,9R)-3-((1R,3r,5S)-bicyclo[3.1.0]hexan-3-ylmethyl)-9-methoxy-3-azabicyclo[3.3.1]nonan-9-yl)picolinamide hydrochloride] registered an inhibition constant Ki on μ-receptor of under 1 nM. This compound yielded an EC50 on human μ opioid receptor of 10 to 75 nM.

`COC1(c2ccnc(C(N)=O)c2)C2CCCC1CN(C13CC(C1)C3)C2` [Compound 103, 4-((1R,5S,9r)-3-(bicyclo[1.1.1]pentan-1-yl)-9-methoxy-3-azabicyclo[3.3.1]nonan-9-yl)picolinamide hydrochloride] returned a Ki on μ-receptor of 1 to 5 nM. On human μ opioid receptor, this compound returned an EC50 of over 75 nM.

On μ-receptor, `COC1(c2ccnc(C(N)=O)c2)C2CCCC1CN(C13CC(c4ccccc4)(C1)C3)C2` [Compound 106, 4-((1R,5S,9r)-9-methoxy-3-(3-phenylbicyclo[1.1.1]pentan-1-yl)-3-azabicyclo[3.3.1]nonan-9-yl)picolinamide hydrochloride] registered a Ki of under 1 nM. For the same compound, the concentration giving a half-maximal response (EC50) at human μ opioid receptor is under 10 nM.

In the case of `COC1(c2ccnc(C(N)=O)c2)C2CCCC1CN(C(C)(C)C)C2` [Compound 107, 4-((1R,5S,9r)-3-(tert-butyl)-9-methoxy-3-azabicyclo[3.3.1]nonan-9-yl)picolinamide hydrochloride], the inhibition constant (Ki) on μ-receptor lay in the range of 1 to 5 nM. This compound also gave an EC50 on human μ opioid receptor of over 75 nM.

The compound `COC1(c2ccnc(C(N)=O)c2)C2CCCC1CN([C@@H]1CC[C@H]1c1ccccc1)C2` (stereo partly drawn) [Compound 109, 4-((1R,5S,9R)-9-methoxy-3-((1R,2S)-2-phenylcyclobutyl)-3-azabicyclo[3.3.1]nonan-9-yl)picolinamide hydrochloride] came in with an inhibition constant Ki on μ-receptor of under 1 nM. The EC50 at human μ opioid receptor was under 10 nM.

`COC1(c2ccnc(C(N)=O)c2)C2CCCC1CN(C1CCCOC1)C2` [Compound 111, 4-((1R,5S,9r)-9-methoxy-3-(tetrahydro-2H-pyran-3-yl)-3-azabicyclo[3.3.1]nonan-9-yl)picolinamide hydrochloride] displayed a Ki on μ-receptor of over 5 nM. Further, on human μ opioid receptor, the 50% effective concentration (EC50) is over 75 nM.

`COC1(c2ccc(C(N)=O)s2)C2CCCC1CN(C13CC(C1)C3)C2` [Compound 112, 5-((1R,5S,9r)-3-(bicyclo[1.1.1]pentan-1-yl)-9-methoxy-3-azabicyclo[3.3.1]nonan-9-yl)thiophene-2-carboxamide hydrochloride] returned a Ki at μ-receptor of 1 to 5 nM. This compound also registered an EC50 on human μ opioid receptor of over 75 nM.

At μ-receptor, `COC1(c2ccnc(C(N)=O)c2)C2CCCC1CN(Cc1ncco1)C2` [Compound 113, 4-((1R,5S,9r)-9-methoxy-3-(oxazol-2-ylmethyl)-3-azabicyclo[3.3.1]nonan-9-yl)picolinamide hydrochloride] returned a Ki of over 5 nM. The same compound had an EC50 at human μ opioid receptor of over 75 nM.

On to `COC1(c2ccc(C(N)=O)s2)C2CCCC1CN(C1CN(C(C)=O)C1)C2` [Compound 114, 5-((1R,5S,9r)-3-(1-acetylazetidin-3-yl)-9-methoxy-3-azabicyclo[3.3.1]nonan-9-yl)thiophene-2-carboxamide hydrochloride], for which the inhibitory constant (Ki) on μ-receptor is over 5 nM. Also, the EC50 on human μ opioid receptor is over 75 nM.

In the case of `COC1(c2ccnc(C(N)=O)c2)C2CCCC1CN(Cc1cnco1)C2` (centres unmarked) [Compound 115, hydrochloride], the inhibition constant Ki on μ-receptor was in the range of 1 to 5 nM. Also, the EC50 at human μ opioid receptor was in the range of 10 to 75 nM.
